Experiments:
[1] = MTT mitochondrial toxicity assay in Vero cells; format: cell-based; conditions: African green monkey, Vero cells, read-out: Vero cell toxicity MTT CC50
[2] = CytoTox-Glo cellular lysis assay in Vero cells; format: cell-based; conditions: African green monkey, Vero cells, read-out: Vero cell toxicity CTG CC50
In short: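 Vero cell toxicity was measured as release of intracellular proteases into the medium caused by cell lysis, and reported as CC50.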

in vitro = conditions: human
Protocol: (§1) Toxicity Assays. Qualitative assessments of cytotoxicity were done visually by inspecting the cells in the primary screening assays. For the quantitative assays, cells were plated in 96-well plates at 1.0×10^4 per well. The next day the compounds were added at 0.78 to 100 μM in a final concentration of 1% (v/v) DMSO, and the cells were incubated for 24 hours under conditions identical to those employed for the viral replication inhibition assays. Mitochondrial toxicity was measured by incubating the cells with 0.25 mg/mL thiazolyl blue tetrazolium bromide (MTT, SigmaAldrich Chemical Co.), the cultures were incubated for 60 min, metabolites were solubilized in acidic isopropanol, and absorbance was read at 570 nm. Cellular lysis was measured by detecting release of intracellular proteases with the CytoTox-Glo assay (Promega) according to the manufacturer's instructions. Percent viability was determined for each compound concentration from the maximal absorbance or luminosity data, and then CC50 values were calculated by non-linear curve fitting using GraphPad Prism.
(§2) Inhibition of viral replication was next assessed in human foreskin fibroblasts (HFF) to determine whether NTS inhibitors could block HSV-1 and HSV-2 replication in a physiologically relevant, primary human cell type. […] Viral yields 24 hours post-infection were measured by plaque assay.

HSV-1 = assay: Topical treatment of mice infected with HSV-1 on the cornea; format: in vivo; conditions: for Body weight post-infection: 1 μg three times daily for 5 days
Protocol: Compounds were administered at 1 μg/eye in 10% DMSO. Two mice were treated with 10% DMSO as a negative control. The corneal surface was swabbed once per day on days 1, 2, 4 and 5 post-infection and titer of virus shed from the epithelium was determined by standard plaque assay. On the fifth day post-infection mice were euthanized and the trigeminal ganglia (TG) and brainstems were dissected. The tissues were disrupted and virus in them quantified by plaque assay. […] Weight of individual mice was recorded daily. […] Saline was a negative control. On the fifth day post-infection mice were euthanized and the trigeminal ganglia (TG) and brainstems were dissected. The tissues were disrupted and virus in them quantified by plaque assay.
Body weight was monitored daily post-infection as a sensitive indicator of overall health (FIG. 12).
Infected mice treated with saline served as a negative control.

[3] = test system: TK-deficient mutant of HSV-2 strain 333, ΔTK-; assay: Replication inhibition of thymidine kinase-deficient HSV-2 mutant in Vero cells; format: cell-based, herpes simplex virus 2; conditions: 50 μM, 24 h
Protocol: Cells and Viruses. Vero cells were maintained in Dulbecco's modified Eagle's medium (DMEM) containing 3% newborn calf serum, 3% bovine growth serum, 2 mM L-glutamine and 100 IU/mL penicillin and 0.1 mg/mL streptomycin (P/S). Primary human foreskin fibroblasts (ATCC #CRL2429™) were cultured in DMEM containing 10% FBS, 2 mM L-glutamine plus P/S, and used at passage 3 to 12. HSV-1 #6 and HSV-2 #1 are de-identified clinical isolates from the Saint Louis University Hospital. Stocks were prepared after a single passage in cell culture and were titered by standard plaque assay (Knipe and Spang, 1982). Wild-type HSV-1 and HSV-2 used in FIG. 6 were laboratory strains 17 and 333, respectively. The HSV-1 TK-deficient mutant, ΔTK contains a 361-bp deletion between the BglII-SmaI restriction enzyme sites in the UL23 open reading frame of strain 17 (Korom, et al., 2013). The TK-deficient mutant of HSV-2 strain 333, ΔTK-, contains a 180-bp KpnI-KpnI deletion in the UL23 open reading frame that abrogates TK activity (McDermott, et al, 1984). ΔTK- was the generous gift of Jim Smiley. Virus stocks were grown and titered on Vero cells (Morrison and Knipe, 1996).
Inhibition of acyclovir-resistant HSV-1 and HSV-2 mutants. […] HSV TK-deficient mutants are therefore insensitive to ACV. […] Vero cells were infected with laboratory strains of HSV-1 or HSV-2 and engineered TK-deficient mutants of the same strains. […] Similar patterns were seen when the compounds were used at 5 μM (FIG. 8B), although inhibition by compound #30 at 5 μM was too low to definitively interpret.

HSV-2 = assay: Time-of-addition experiment, HSV-2 in Vero cells; format: cell-based, herpes simplex virus 2; conditions: 10 μM
Protocol: The inventors next varied the time post-infection that the inhibitors were added to begin defining the stage(s) of viral replication targeted by the inhibitors. […] The cells were incubated until 24 hours post-infection and then infectious viral titers were determined by plaque assay and viral DNA production was determined by quantitative PCR (FIG. 5).

[4] = test system: primary human foreskin fibroblasts; assay: in vitro
Protocol: as §1, §2

HSV-1 strain KOS = assay: Resistance evolution by passage of HSV-1 KOS in presence of inhibitor; format: cell-based, herpes simplex virus 1; conditions: compared with unselected KOS
Protocol: Cultures were scraped and collected when virus-induced cytopathic effect was evident (24-72 h). […] This process was repeated three times, maintaining the independent lineages. […] Inhibition was determined by subtracting a lineage's titer in the presence of inhibitor from its titer in the presence of diluent control.

human RNaseH1 = target: T1, human RNaseH1 (Homo sapiens, UniProt O60930); conditions: Hu et al., 2013; cited from earlier work
T1 construct: hexahistidine; made in house; host or cells: E. coli
T1 sequence (O60930 1-286): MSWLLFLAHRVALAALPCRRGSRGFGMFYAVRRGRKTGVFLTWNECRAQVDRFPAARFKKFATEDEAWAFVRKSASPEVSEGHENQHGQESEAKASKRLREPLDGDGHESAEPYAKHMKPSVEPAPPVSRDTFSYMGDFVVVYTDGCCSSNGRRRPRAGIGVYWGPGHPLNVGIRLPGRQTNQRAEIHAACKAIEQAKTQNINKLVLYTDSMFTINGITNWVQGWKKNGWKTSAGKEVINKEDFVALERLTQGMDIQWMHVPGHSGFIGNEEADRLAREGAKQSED

[5] = 1 μg/eye once daily, compared with DMSO control
[6] = 7.5 μg/eye three times per day, BALB/c mice, versus saline control

SMILES: Nc1nc2c(ncn2COCCO)c(=O)[nH]1 [ACV, Acyclovir, reference compound]
- CC50 at 24 h [1]: > 100 µM
- CC50 at 24 h [2]: > 100 µM
- CC50 at 24 h (in vitro): > 100 µM
- Body weight post-infection (HSV-1): maintained their weight through 8 days post-infection
- Virus in the TG at 5 days post-infection (HSV-1; [5]): significantly reduced
- Virus shed in the tear film (HSV-1; [5]): transiently reduced
- Titers of virus in the TG on day 5 post-infection (HSV-1; [6]): reduced to a similar extent
- Inhibition of TK-mutant HSV-2 (in words) [3]: little effect
- Delay of addition with no effect on inhibition of DNA replication or viral accumulation (HSV-2): ≤ 5 hours post-infection
- Time of addition at which compound becomes essentially ineffective (HSV-2): 12 hours post-infection

SMILES: CCOc1ccc(-c2c3cc(O)c(=O)cc-3oc3cc(O)c(O)cc23)cc1 [Compound 30]
- CC50 [4]: > 100 µM
- Inhibition of TK-mutant HSV-2 (in words) [3]: efficiently inhibited

SMILES: Cc1cc(C2CCCCC2)n(O)c(=O)c1 [Compound 41, Ciclopirox, reference compound]
- CC50 at 24 h [1]: > 50 µM
- CC50 at 24 h [2]: > 100 µM
- CC50 at 24 h (in vitro): > 100 µM
- Titers of virus in the TG on day 5 post-infection (HSV-1; [6]): lower
- Titers of virus in the brainstem on day 5 post-infection (HSV-1; [6]): lower
- Inhibition of TK-mutant HSV-2 (in words) [3]: efficiently inhibited
- Sensitivity of inhibitor-selected lineages after 3 rounds of growth (in words) (HSV-1 strain KOS): remained as sensitive

SMILES: CC(C)c1ccc(O)c(=O)c(O)c1 [Compound 46, Beta-thujaplicinol]
- CC50 [4]: > 100 µM
- Body weight post-infection (HSV-1): maintained their weight through 8 days post-infection
- Virus in the TG at 5 days post-infection (HSV-1; [5]): significantly reduced
- Virus in the brainstem at 5 days post-infection (HSV-1; [5]): significantly reduced
- Virus shed in the tear film (HSV-1; [5]): transiently reduced
- Inhibition of TK-mutant HSV-2 (in words) [3]: efficiently inhibited
- Sensitivity of inhibitor-selected lineages after 3 rounds of growth (in words) (HSV-1 strain KOS): remained as sensitive
- Effect on RNase H1 (in words) (human RNaseH1): no effect

SMILES: CC(C)=CCc1ccc(O)c(=O)cc1C(C)C [Compound 49, Nootkatin]
- CC50 [4]: > 100 µM

SMILES: CC(=O)NC(CCc1ccc(Cl)c(Cl)c1)c1cccc(O)c(=O)c1 (stereo not drawn) [Compound 55]
- CC50 [4]: > 100 µM

SMILES: C=C(C)C1CCc2c(c(C)cc(O)c(=O)c2O)C1 (stereo not drawn) [Compound 56, Manicol]
- CC50 [4]: > 100 µM
